Data: US4837224A, “(R)-alpha-ethyl-2-oxo-1-pyrrolidineacetamide compositions” (UCB Societe Anonyme, priority 1984, dated 1989)

What was measured:
male mouse = test: Toxicity: LD 50 after intravenous administration in the male mouse; assay type: in vivo
Text: (§1) The following table gives, for compounds A and B, the LD 50 in mg/kg determined on the male mouse and the male rat after intravenous administration

[1] = as above; assay type: in vivo; settings: in vivo; male mouse, intravenous
Text: as §1

[2] = Toxicity: LD 50 after intravenous administration in the male rat; settings: in vivo
Text: as §1

[3] = tested on: amnesia-inducing effect of an electric shock; test: Mnemic activity: antagonism of the amnesia-inducing effect of an electric shock; assay type: in vivo, rat (female Wistar); settings: for minimal effective dose: sc, rat, subcutaneous, 5 minutes after the end of the learning session, retention measured 24 hours after the learning session, read-out: Active dose (minimum active dose reestablishing a normal threshold of between 8 to 11 graduations); for mnemic activity relative to the racemate: times more active than the racemate (compound A)
Text: The principle of the test is as follows:
The reaction of withdrawal of a rat's paw when subjected to an increasing and measured pressure is observed. The pressure at which the withdrawal reaction takes place is referred to as the "reaction threshold". This threshold is expressed by the number of graduations read diectly from the scale of the apparatus used (analgesia-meter UGO BASILE Milan) and thus corresponds to the minimum pressure which, applied to the paw of the animals, causes the paw to be withdrawn (learning session). Three measurements are carried out at intervals of 30 minutes.
When tested 24 hours after the end of the learning session, control animal show a natural retention of the previous test, which corresponds to a threshold of the order of 8 to 11 graduations.
The amnesia-inducing effect is produced by applying a trans-temporal supramaximal electric shock (100 mA, 120 Volts, 0.2 sec.) to the rats 15 minute after the end of the learning session. This amnesia-inducing effect due to the electric shock induces, when measuring the retention 24 hours later, an increase of the avoidance threshold which now corresponds to that of naive animals (which have not undergone a learning session), that is to say a threshold of between 14 and 19 graduations.
For each compound to be tested the minimum active dose (in mg/kg) reestablishing a normal threshold of between 8 to 11 graduations 24 hours after the learning session in animals subjected to electric shock is determined.
The compounds to be tested are administered subcutaneously, as a 10% solution or suspension, to groups of 10 rats (female Wistar rats weighing 150 g) 5 minutes after the end of the learning session. At the same time, a control group of 10 rats is given only a 0.9% aqueous sodium chloride solution.

| Structure (SMILES) | toxicity relative to the racemate (male mouse; times lower toxicity than the racemic form, based on LD 50 in mouse and rat) | toxicity relative to the racemate (in words) (male mouse; versus racemate (product A), LD 50 mouse and rat, intravenous) | LD50 [1] | LD50 [2] | minimal effective dose [3] | mnemic activity relative to the racemate [3] | mnemic activity relative to the racemate ([3]; listed as dextrorotatory enantiomer of alpha-ethyl-2-oxo-1-pyrrolidineacetamide) |
| --- | --- | --- | --- | --- | --- | --- | --- |
| CC[C@H](C(N)=O)N1CCCC1=O [compound B, (R)-alpha-ethyl-2-oxo-1-pyrrolidineacetamide] | 3 times | three times less toxic | 5600 mg/kg | 5000 mg/kg | 0.17 mg/kg | 10 times | about 10 times |
| CCC(C(N)=O)N1CCCC1=O (racemic) [compound A, alpha-ethyl-2-oxo-1-pyrrolidineacetamide] |  |  |  |  | 1.7 mg/kg |  |  |
